Measured values from patent publication EP4631940A1, “COMPOUND TARGETING PAN-KRAS PROTEIN DEGRADATION AGENT AND USE THEREOF” (Betta Pharmaceuticals Co., Ltd., priority 2022, dated 2024).
Read-outs that look alike come from different tables or passages of the source.

Assays:
KRAS G12D [1] = biological target: T1, KRAS G12D (Homo sapiens, UniProt P01116, G12D); experiment: cell-based; conditions: AGS
KRAS G12D [2] = biological target: T1, KRAS G12D
AGS = experiment: Cell proliferation experiment (CellTiter-Glo); type: cell-based; conditions: read-out: IC50(nM) AGS
SW620 = experiment: Cell proliferation experiment (CellTiter-Glo); type: cell-based; conditions: read-out: IC50(nM) SW620
[3] = SW620, KRAS mutation type G12V, 96 h incubation
[4] = AGS, KRAS mutation type G12D, 96 h incubation

Row | IC50 (SW620; [3]) [nM] | IC50 (AGS; [4]) [nM] | Compound | Dmax (KRAS G12D [1]) [%] | DC50 (KRAS G12D [2]) [nM] | IC50 (AGS; Homo sapiens, AGS, 96 h) [nM] | Dmax (%) (KRAS G12D [2]) | IC50 (SW620) [nM] | IC50 (AGS) [nM]
1 |  |  | CCc1c(F)ccc2cc(O)cc(-c3ncc4c(N5CCC[C@@](C)(O)C5)nc(OCC5(CN6CC(N7CCN(c8cc([C@H](C(=O)N9C[C@H](O)C[C@H]9C(=O)N[C@@H](C)c9ccc(-c%10scnc%10C)cc9)C(C)C)on8)CC7)C6)CC5)nc4c3F)c12 [Compound 116] | 95 | 30 | 27 |  |  | 
2 |  |  | (7-(8-ethyl-7-fluoro-3-hydroxynaphthalen-1-yl)-8-fluoro-4-(R)-3-hydroxy-3-methylpiperidin-1-y l)pyrido[4,3-d]pyrimidin-2-yl)oxy)methyl)-6-methylenehexahydro-1H-pyrrolizin-3-yl)methyl ((3-(1-((S)-1-(2S,4R)-4-hydroxy-2-(S)-1-(4-methylthiazol-5-yl)phenyl)ethyl)carbamoyl)pyrrolidi n-1-yl)-3-methyl-1-oxobutan-2-yl)-1H-1,2,3-triazol-4-yl)bicyclo[1.1.1]pentan-1-yl)methyl)carba mate [Compound 126] |  | 23 |  | 95 | 246 | 32
3 |  |  | CCc1c(F)ccc2cc(O)cc(-c3ncc4c(N5CCC[C@@](C)(O)C5)nc(OC[C@]56CCCN5[C@@H](COc5cnc(-c7cn([C@H](C(=O)N8C[C@H](O)C[C@H]8C(=O)N[C@@H](C)c8ccc(-c9scnc9C)cc8)C(C)C)nn7)cn5)CC6)nc4c3F)c12 [Compound 159] | 95 | 2.3 | 6.2 |  |  | 
4 |  |  | C=C1CN2[C@H](COc3cc(-c4cn([C@H](C(=O)N5C[C@H](O)C[C@H]5C(=O)N[C@@H](C)c5ccc(-c6scnc6C)cc5)C(C)C)nn4)ccn3)CC[C@@]2(COc2nc(N3CCC[C@@](C)(O)C3)c3cnc(-c4cc(O)cc5ccc(F)c(CC)c45)c(F)c3n2)C1 [Compound 121] | 95 | 30 | 40 |  |  | 
5 |  |  | CCc1c(F)ccc2cc(O)cc(-c3ncc4c(N5CCC[C@@](C)(O)C5)nc(OCCN5CCC(COc6cc([C@H](C(=O)N7C[C@H](O)C[C@H]7C(=O)N[C@@H](C)c7ccc(-c8scnc8C)cc7)C(C)C)on6)CC5)nc4c3F)c12 [Compound 80] | 95 | 40 | 63 |  |  | 
6 |  |  | CCc1c(F)ccc2cc(O)cc(-c3ncc4c(N5CCC[C@@](C)(O)C5)nc(OCC5(CN6CCC7(CC6)CCN(c6cc([C@H](C(=O)N8C[C@H](O)C[C@H]8C(=O)N[C@@H](C)c8ccc(-c9scnc9C)cc8)C(C)C)on6)CC7)CC5)nc4c3F)c12 [Compound 155, (2S,4R)-1-((R)-2-(3-(9-((1-((7-(8-ethyl-7-fluoro-3-hydroxynaphthalen-1-yl)-8-fluoro-4-((R)-3-hydroxy-3-methylpiperidin-1-yl)pyrido[4,3-d]pyrimidin-2-yl)oxy)methyl)cyclopropyl)methyl)-3,9-diazaspiro[5.5]nonan-3-yl)isoxazol-5-yl)-3-methylbutanoyl)-4-hydroxy-N-((S)-1-(4-(4-(4-methylthiazol-5-yl)phenyl)ethyl)pyrrolidine-2-carboxamide] | 95 | 8.7 | 23 |  |  | 
7 |  |  | CCc1c(F)ccc2cc(O)cc(-c3ncc4c(N5CCC[C@@](C)(O)C5)nc(OCC5(CN6CCN(Cc7cn([C@H](C(=O)N8C[C@H](O)C[C@H]8C(=O)N[C@@H](C)c8ccc(-c9scnc9C)cc8)C(C)C)nn7)CC6)CC5)nc4c3F)c12 [Compound 132] | 95 | 19 | 25 |  |  | 
8 |  |  | CCc1c(F)ccc2cc(O)cc(-c3ncc4c(N5CCC[C@@](C)(O)C5)nc(OCC5(CN6CCC(c7cn([C@H](C(=O)N8C[C@H](O)C[C@H]8C(=O)N[C@@H](C)c8ccc(-c9scnc9C)cc8)C(C)C)nn7)CC6)CC5)nc4c3F)c12 [Compound 131, (2S,4R)-1-((S)-2-(4-(1-((((7-(8-ethyl-7-fluoro-3-hydroxynaphthalen-1-yl)-8-fluoro-4-((R)-3-hydroxy-3-methylpiperidin-1-yl)pyrido[4,3-d]pyrimidin-2-yl)oxy)methyl)cyclopropyl)methyl)piperidin-4-yl)-1H-1,2,3-triazol-1-yl)-3-methylbutanoyl)-4-hydroxy-N-(((S)-1-(4-(4-methylthiazol-5-yl)phenyl)ethyl)pyrrolidine-2-carboxamide] | 95 | 18 | 34 |  |  | 
9 |  |  | CCc1c(F)ccc2cc(O)cc(-c3ncc4c(N5CCC[C@@](C)(O)C5)nc(OCCN5CCC(CCOc6cc([C@H](C(=O)N7C[C@H](O)C[C@H]7C(=O)N[C@@H](C)c7ccc(-c8scnc8C)cc7)C(C)C)on6)CC5)nc4c3F)c12 [Compound 79] | 95 | 44 | 44 |  |  | 
10 |  |  | CCc1c(F)ccc2cc(O)cc(-c3ncc4c(N5CCC[C@@](C)(O)C5)nc(OCC5(CN6CCC(N7CCC(c8cn([C@H](C(=O)N9C[C@H](O)C[C@H]9C(=O)N[C@@H](C)c9ccc(-c%10scnc%10C)cc9)C(C)C)nn8)CC7)CC6)CC5)nc4c3F)c12 [Compound 137] | 95 | 37 | 37 |  |  | 
11 |  |  | CCc1c(F)ccc2cc(O)cc(-c3ncc4c(N5CCC[C@@](C)(O)C5)nc(OCC5(CN6CCN(C7CN(c8cc([C@H](C(=O)N9C[C@H](O)C[C@H]9C(=O)N[C@@H](C)c9ccc(-c%10scnc%10C)cc9)C(C)C)on8)C7)CC6)CC5)nc4c3F)c12 [Compound 156] | 95 | 9.6 | 9.6 |  |  | 
12 |  |  | CCc1c(F)ccc2cc(O)cc(-c3ncc4c(N5CCC[C@@](C)(O)C5)nc(OCC5(CN6CCC(N(C)c7ccc(-c8cn([C@H](C(=O)N9C[C@H](O)C[C@H]9C(=O)N[C@@H](C)c9ccc(-c%10scnc%10C)cc9)C(C)C)nn8)cn7)CC6)CC5)nc4c3F)c12 [Compound 154] | 95 | 5.5 | 13 |  |  | 
13 |  |  | CCc1c(F)ccc2cc(O)cc(-c3ncc4c(N5CCC[C@@](C)(O)C5)nc(OC[C@]56CCCN5[C@@H](COc5ccc(-c7cn([C@H](C(=O)N8C[C@H](O)C[C@H]8C(=O)N[C@@H](C)c8ccc(-c9scnc9C)cc8)C(C)C)nn7)cn5)CC6)nc4c3F)c12 [Compound 157] | 95 | 7.7 | 19 |  |  | 
14 | 32 | 6.1 | CCc1c(F)ccc2cc(O)cc(-c3ncc4c(N5CCC[C@@](C)(O)C5)nc(OCC5(CN6CCN(C7CCN(c8cnc(-c9cn([C@H](C(=O)N%10C[C@H](O)C[C@H]%10C(=O)N[C@@H](C)c%10ccc(-c%11scnc%11C)cc%10)C(C)C)nn9)cn8)CC7)CC6)CC5)nc4c3F)c12 [Compound 197] |  |  |  |  |  | 
15 | 15 | 4 | CCc1c(F)ccc2cc(O)cc(-c3ncc4c(N5CCC[C@@](C)(O)C5)nc(OCC5(CN6CCC(N7CCN(c8cnc(-c9cn([C@H](C(=O)N%10C[C@H](O)C[C@H]%10C(=O)N[C@@H](C)c%10ccc(-c%11scnc%11C)cc%10)C(C)C)nn9)cn8)CC7)CC6)CC5)nc4c3F)c12 [Compound 196, (2S,4R)-1-((S)-2-(4-(5-(4-(1-(((7-(8-ethyl-7-fluoro-3-hydroxynaphthalen-1-yl)-8-fluoro-4-(((R)-3-hydroxy-3-methylpiperidin-1-yl)pyrido[4,3-d]pyrimidin-2-yl)oxy)methyl)cyclopropyl)methyl)piperidin-4-yl)piperazin-1-yl)pyrazin-2-yl)-1H-1,2,3-triazol-1-yl)-3-methylbutanoyl)-4-hydroxy-N-(((S)-1-(4-(4-methylthiazol-5-yl)phenyl)ethyl)pyrrolidine-2-carboxamide] |  |  |  |  |  | 
